Experimental data from US8603482B2, “Compositions and methods for cancer immunotherapy” (Eisai R&D Management Co., Ltd., priority 2005, dated 2013).
Values joined by “and” are separate entries in the source; they are usually repeats but may differ in a detail not shown here. Identical values can stand only once.

Key:
[1] = test system: B16F10 murine melanoma cells; experiment: Survival of B16F10 melanoma-bearing mice, i.p. E6020 with s.c. GM-CSF-secreting tumor cell vaccine; type: in vivo, B6 mice (C57BL/6 mice); details: i.p. E6020 plus s.c. irradiated B16-GM-CSF cells at separate sites, three days after s.c. B16F10 inoculation; FIG. 1
Source text: To determine the effect of E6020, a sodium salt of ER 804057, when administered intraperitoneally with a cancer vaccine, e.g., granulocyte-macrophage colony stimulating factor (GM-CSF) secreting tumor cells, a mouse model using melanoma cells was used.
E6020 is a TLR4 (Toll-like receptor-4) agonist. B6 mice (C57BL/6 mice) were engrafted subcutaneously with 1×10^6 syngeneic B16F10 murine melanoma cells. Three days after tumor cell inoculation, the mice were either (1) vaccinated subcutaneously (s.c.) with 1×10^6 B16F10 tumor cells that were genetically modified to stably express and secrete murine GM-CSF (B16-GM-CSF cells); (2) vaccinated intraperitoneally (i.p.) with E6020; or (3) were treated with a combination of s.c. GM-CSF cell vaccination and i.p. E6020 (the GM-CSF cell vaccination and E6020 vaccination were administered at separate sites in the mice). In these experiments, the GM-CSF cells were inactivated by gamma-irradiation prior to inoculation. Survival of the animals was monitored.

[2] = test system: B16F10 murine melanoma cells; experiment: Survival of B16F10 melanoma-bearing mice, intratumoral GM-CSF cells with E6020; type: in vivo, B6 mice; details: intratumoral GM-CSF cells in combination with E6020 (about 3-10 μg) when tumors palpable; versus untreated or GM-CSF cells alone; FIG. 2
Method: The effect of E6020 on treatment of B6 mice that were engrafted subcutaneously with 1×10^6 syngeneic B16F10 murine melanoma cells was examined. When tumors became palpable, the mice were injected intratumorally with GM-CSF cells alone, or in combination with E6020 (about 3-10 μg). Survival of the animals was monitored.

MUC1 IL-10−/− mice = experiment: MUC-1 vaccine with E6020 adjuvant in mice that develop IBD followed by colon adenocarcinoma; type: in vivo, mouse
Method: To test the effects of a MUC-1 vaccine with E6020 adjuvant for treating inflammatory bowel disease (IBD) and subsequent development of colon adenocarcinoma, an engineered mouse strain that lacks the IL-10 gene and expresses transgenic human MUC1 was used. Such mice spontaneously develop intestinal inflammation resembling IBD followed by colon adenocarcinoma. […] 4, 2006.
In these experiments, mice were immunized intranasally with […] of Tn MUC100mer ([…])×5, SEQ ID NO:1) and […] of E6020. Animals were vaccinated at about 4.5 weeks and boosted at about 6.5 weeks and 9 weeks.

EGFRvIII peptide = experiment: EGFRvIII peptide-specific antibody titers by ELISA after immunization with peptide-KLH conjugate; type: in vivo, C57/BL6J mice; details: for Geometric mean titer: IgG1 / Geometric mean titer: IgG2a: antigen administered with the named adjuvant, 8 animals; for IgG1 antibody titer to EGFRvIII peptide, individual animals / IgG2a antibody titer to EGFRvIII peptide, individual animals: s.c. peptide-KLH conjugate 25 μg with E6020 3 μg and/or GM-CSF 5 μg, three immunizations at three-week intervals, titer = last serum dilution with signal 0.25 OD units above background
Method: To determine whether an adjuvant can enhance the effect of an oncology antigen (i.e., an antigen that can be used to vaccinate an animal against a cancer), C57/BL6J mice were immunized subcutaneously with a tumor-associated peptide, LEEKKGNYVVTDHC (SEQ ID NO: 2) (derived from a mutant form of EGFR, EGFRvIII) conjugated to the protein carrier keyhole limpet hemocyanin (KLH), with or without E6020 or murine GM-CSF, a cytokine used in cancer vaccine trials to boost immune response. E6020 was dosed at 3 μg, GM-CSF at 5 μg and the peptide-KLH conjugate at 25 μg per dose. Mice were immunized three times at intervals of three weeks. Serum was prepared from mice two weeks after each immunization and tested for EGFRvIII peptide-specific antibodies using ELISA on plates coated with EGFRvIII peptide conjugated to bovine serum albumin. The results in Table 2 are presented as titers from individual animals. The titer is defined as the last serum dilution at which a signal at 0.25 OD units above background was observed.

[3] = addition of E6020 to the MUC-1 vaccine

Molecule | therapeutic efficacy (survival of tumor-bearing mice) [1] | survival of tumor-bearing mice [2] | appearance of histologically detected tumors (MUC1 IL-10−/− mice; [3]) | progression to rectal prolapse associated with IBD (MUC1 IL-10−/− mice; [3]) | Colon tumors (MUC1 IL-10−/− mice; mice with colon tumors / mice treated, MUC1 IL-10−/− mice) | Geometric mean titer: IgG1 (EGFRvIII peptide) | Geometric mean titer: IgG2a (EGFRvIII peptide) | IgG1 antibody titer to EGFRvIII peptide, individual animals (EGFRvIII peptide) | IgG2a antibody titer to EGFRvIII peptide, individual animals (EGFRvIII peptide) | effect on antigen-specific IgG2a titers (in words) (EGFRvIII peptide; vaccination with EGFRvIII peptide-KLH)
CCCCCCCCCCCC(=O)CC(=O)N[C@H](COCC[C@@H](CCCCCCC)OC(=O)CCCCCCCCCCC)COP(=O)(O)OCCNC(=O)NCCOP(=O)(O)OC[C@@H](COCC[C@@H](CCCCCCC)OC(=O)CCCCCCCCCCC)NC(=O)CC(=O)CCCCCCCCCCC [E6020] | enhanced the therapeutic efficacy of the GM-CSF cells | increased survival | suppresses the appearance of histologically detected tumors | slow the progression to rectal prolapse associated with IBD | 3/3 | 20182 | 10091 | 24000 (6×) and 48000 and 3000 | 12000 (3×) and 24000 and 48000 and 1500 and 6000 (2×) | enhanced the mean titer of antigen-specific IgG2a
GM-CSF: murine GM-CSF, a cytokine used in cancer vaccine trials to boost immune response (protein, UniProt P01587 18-141, looked up) Granulocyte-macrophage …: APTRSPITVTRPWKHVEAIKEALNLLDDMPVTLNEEVEVVSNEFSFKKLTCVQTRLKIFEQGLRGNFTKLKGALNMTASYYQTYCPPTPETDCETQVTTYADFIDSLKTFLTDIPFECKKPGQK | – | – | – | – | – | 24000 | 3568 | 24000 (2×) and 48000 (3×) and 12000 (3×) | 3000 (2×) and 6000 (3×) and 24000 and 750 (2×) | –
